Assay in all cases: NCI anticancer screen, dose series, 48 h
Assay [1] has as its system SK-MEL-2 melanoma.
The subject of assay [2] is DMS 114 small cell lung.
Assay [3] has as its system KM20L2 colon.
Assay [4] concerns HOP-18 NSCLC.
The test system of assay [5] is DLD-1 colon.
Assay [6] relates to DMS 273 small cell lung.
Assay [7] deals with HCT-116 colon.
Assay [8] relates to LXFL 529 NSCLC.
Assay [9] has as its system PC-3 prostate.
In assay [10] the test system is MCF7 breast.

This note sets out measurements from PubChem BioAssay (NCI).

Structures are written as SMILES. “And” between values parts separate entries of the source, which are not always exact repeats. Equal values may be shown once.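 Grown in 96-well plates, cells were treated for 48 hours with each compound at five concentrations. Insufficient inhibition: endpoint recorded as highest concentration tested. GI50 is the concentration that inhibits growth by half. TGI denotes the concentration required for complete inhibition of growth.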 Some results are limits rather than exact numbers.

Consider `CC(=O)NNc1nc(C)c(C(=O)/C=C/c2ccc(Cl)cc2)s1`, for which the TGI in assay [1], in assay [2], in [3], in assay [4], in assay [5] and in assay [6] was over 100 µM in each case.

On to `COc1cc2c(cc1OC)C1Cc3ccc(OC)c(OC)c3C[N+]1([O-])CC2` (configuration not stated), for which the TGI in [1], in assay [3], in [7], in assay [8] and in assay [5] was over 100 µM throughout.

As to `COC(=O)[C@@H](C)[C@H]1CC[C@@](C)(CCC2=C(C)CC3C=C(C)CCC3C2(C)C)OO1` (some centres not stated), the TGI in assay [1] turned out to be 3.32 µM; in assay [2], 4.04 µM; in assay [3] it was 3.13 µM; in assay [7] it was 3.81 µM; in [8], 2.2 µM; in assay [5], 2.54 µM. The compound further gave a TGI in [6] of 4.43 µM.

Turning to `Cc1nc(/C=C2\C(=O)C=Cc3ccccc32)c(O)o1`, the TGI in assay [1], in [2], in assay [3], in assay [4], in assay [7] and in assay [8] was over 100 µM each time. This compound also yielded a TGI in assay [5] of over 100 µM.

As for `CCOC(=O)C1=C(C)N(NC(N)=O)C2(N)N(NC(N)=O)C(C)=C(C(=O)OCC)C12C(=O)OCC` (configuration not stated), the TGI in assay [1], in assay [2], in [3], in assay [7], in assay [8] and in assay [5] was over 100 µM each time. Besides, the TGI in assay [6] is over 100 µM.

As to `C=CCN1/C(=C2\SC(=S)N(c3ccc(C)cc3)C2=O)Sc2c1ncn(C)c2=O`, the TGI in assay [1], in assay [2], in assay [3], in assay [7], in [8] and in [5] was over 100 µM in each case. The TGI in assay [6] is over 100 µM.

As to `COC1CCC(OC)C(C2(C3CC(OC)CCC3OC)OC(=O)c3ccccc32)C1` (configuration not stated), the TGI in assay [1], in assay [2], in [3], in assay [4], in assay [7] and in assay [5] was over 100 µM in each case. In addition, the TGI in assay [6] is over 100 µM.

Turning to `CC(C(=O)c1ccccc1)C1(O)C(=O)Nc2ccc(Cl)cc21` (configuration not stated), the TGI in [1], in assay [2], in assay [3], in [4], in [7] and in [8] was over 100 µM in each case. Further, in assay [5], the TGI is over 100 µM.

Turning to `Cc1ccc(S(=O)(=O)OC(COC(=O)c2ccccc2)C(OS(=O)(=O)c2ccc(C)cc2)C(OS(=O)(=O)c2ccc(C)cc2)C(COC(=O)c2ccccc2)OS(=O)(=O)c2ccc(C)cc2)cc1` (configuration not stated), the TGI in assay [1], in [3], in assay [7], in assay [8] and in assay [6] was over 100 µM in each case.

`C/C(CC(=O)Nc1ccccc1C)=N/NS(=O)(=O)c1ccc(C)cc1`: the TGI in assay [1], in assay [3], in assay [7], in assay [8], in assay [5] and in assay [6] was over 100 µM in each case.

`COC(=O)/C(C#N)=C(\N)C(Cl)(Cl)Cl`: the TGI is 87.2 µM in [1]; 11.1 µM in assay [2]; over 100 µM in [3]; 2.25 µM in assay [7]; 9.73 µM in assay [8]; 3.52 µM in assay [5]. Besides, the TGI in assay [6] came out at 12.4 µM.

For the compound `C=CCC1(C(=O)OC(C)(C)C)C(OC)=C(C(=O)OC(C)(C)C)C2C1C(C(=O)OC(C)(C)C)=C(OC)C2(CC=C)C(=O)OC(C)(C)C` (configuration not stated), the TGI in assay [1], in assay [2], in [4] and in assay [5] was over 100 µM in each case.

With `O=C(c1ccco1)c1c(C(F)(F)F)n([O-])c2cc(C(F)(F)F)ccc2[n+]1=O`, the GI50 in assay [1] is 2.62 µM; in assay [9] it was 0.163 µM; in assay [7], 0.23 µM; in assay [10], 0.445 µM. In addition, the TGI in assay [1] was determined as 6.73 µM; in assay [9], 0.559 µM; in assay [7] it was 1.31 µM; in assay [10], 1.95 µM.

On to `COc1ccc(C(=O)CC2=Nc3nnc(CCCCCCCc4nnc5n4C(=O)C(CC(=O)c4ccc(OC)cc4)=N5)n3C2=O)cc1`, for which the TGI in assay [2], in assay [3], in assay [4], in assay [7], in assay [8] and in [5] was over 100 µM throughout.

Regarding `CCC1(OC(=O)CN)C(=O)OCc2c1cc1n(c2=O)Cc2cc3ccccc3nc2-1` (configuration not stated), the GI50 in [1] is 0.492 µM; in assay [3] it was 0.056 µM; in [9] it was 0.172 µM; in [7], 0.0519 µM and 0.0222 µM; in assay [10], 0.0251 µM; in assay [8], 0.135 µM. Also, the TGI in assay [1] is 0.932 µM and 0.407 µM; in assay [2], 0.461 µM and 1.02 µM; in assay [4] it was 28.4 µM; in assay [9], over 100 µM; in assay [7], 0.265 µM and 0.431 µM; in assay [8], 6.06 µM. Moreover, in assay [5], the TGI was over 100 µM.

`COc1cc(NS(C)(=O)=O)ccc1NCc1c2ccccc2nc2ccccc12`: the TGI was over 100 µM in assay [1]; 58.2 µM in assay [2]; over 100 µM in [3]; 36.6 µM in [7]; over 100 µM in assay [8]; 85.4 µM in assay [5]. The same compound registered a TGI in assay [6] of over 100 µM.

In the case of `COc1ccc2oc(-c3ccc(OC)c(OC)c3OC)cc(=O)c2c1`, the TGI was over 100 µM in assay [1]; over 100 µM in [2]; 63.1 µM in assay [3]; over 100 µM in [7]; over 100 µM in assay [8]; over 100 µM in assay [5].

With `N#C/C(=N\Nc1ccccc1)C(=O)Nc1cc(-c2ccccc2)nn1-c1ccccc1`, the GI50 is 2.19 µM in assay [1], 2.13 µM in [9], 2.14 µM in assay [7] and 2.46 µM in [10]. The TGI is 9.94 µM in [1], 9.48 µM in [9], over 100 µM in assay [7] and over 100 µM in [10].

On to `CO/N=C(\C([O-])=N\[n+]1cnn(CC(=O)OC(C)(C)C)c1)c1csc(NC(c2ccccc2)(c2ccccc2)c2ccccc2)n1`, for which the TGI in assay [1], in [9], in [7] and in assay [10] was over 10 µM throughout.

Take `COc1ccc(NC(=O)c2sc3nc(C)c(C(=O)/C=C/c4cccc(OC)c4)cc3c2N)cc1`: the GI50 in assay [1] was 1.54 µM; in [9] it was 1.56 µM; in assay [7] it was 0.773 µM; in assay [10] it was 0.339 µM. Further, the TGI in assay [1] was 18 µM; in assay [9], 6.55 µM; in assay [7], 1.7 µM; in [10], over 50 µM.

Consider `CCCCCCCCCCCCCCCCOP(=O)([O-])OCC[N+](C)(C)C`, for which the GI50 in [1] is 2.36 µM; in assay [9], 0.277 µM; in assay [7] it was 1.49 µM; in assay [10], 3.62 µM. In addition, the TGI is 7.05 µM and 46.9 µM in assay [1]; over 100 µM in assay [2]; over 100 µM in [4]; 1.51 µM and 7.73 µM in assay [9]; 16 µM and 59.1 µM in assay [10]; 62.2 µM in assay [5]. Moreover, the TGI in [6] was 25.8 µM.

Consider `O=c1oc2cc(OC/C(=N/O)c3ccc(F)cc3)ccc2c2ccccc12`, for which the GI50 in assay [1] was 21.3 µM; in assay [9] it was 22.1 µM; in assay [7] it was 15.8 µM; in assay [10] it was 14.9 µM. For the same compound, the TGI in [1] amounted to 40 µM; in assay [9], 49.1 µM; in assay [7] it was 29.2 µM; in [10] it was 38.4 µM.

For the compound `COc1cc(C(C)c2cc3c(cc2OCCNC(=O)COc2cc4c(cc2C(C)c2cc(OC)c(OC)c(OC)c2)OCO4)OCO3)cc(OC)c1OC` (configuration not stated), the TGI in [1], in assay [2], in assay [3], in assay [7], in assay [8] and in assay [5] was over 100 µM in each case. The compound further returned a TGI in assay [6] of over 100 µM.

With `CCOC(=O)C(=CNC(=S)N=Nc1c(O)[nH]c2ccccc12)C(=O)OCC`, the TGI in assay [1], in assay [9], in assay [7] and in assay [10] was over 100 µM throughout.

Regarding `O=C(CI)Nc1ccc(O)c2ccccc12`, the GI50 is 2.93 µM in [1], 2.38 µM in assay [9], 0.481 µM in [7] and 0.766 µM in assay [10]. Further, the TGI in assay [1] amounted to 9.22 µM; in assay [9] it was 9.69 µM; in [7], 1.16 µM; in assay [10], 2.35 µM.

With `O=C(Nc1ccccc1-c1nn(CN2CCNCC2)c(=S)n(CN2CCNCC2)c1=O)C(F)(F)F`, the TGI amounted to 33.5 µM in assay [1]; 34 µM in assay [2]; 63.9 µM in assay [4]; 32.5 µM in [7]; 33.3 µM in [5]; 35.3 µM in assay [6].

Consider `Cc1nc(N)nc(N)c1CCCc1ccccc1`, for which the TGI in [1], in assay [2], in assay [3], in [7], in assay [8] and in [5] was over 100 µM throughout.

Regarding `O=C1CNC(=O)c2[nH]cnc2N1`, the TGI in assay [2], in assay [4], in assay [8], in assay [5] and in assay [6] was over 100 µM in each case.

Regarding `Cc1[nH]c(N)nc(=S)c1CCC(=O)O`, the TGI in [1], in assay [9], in [7] and in assay [10] was over 100 µM in each case.

With `N/N=C(\c1nc2ccc(Cl)cc2[nH]c1=O)C(O)c1ccc(Cl)c(Cl)c1` (configuration not stated), the TGI in [1], in assay [2], in [3], in assay [7], in assay [8] and in assay [5] was over 100 µM throughout. This compound also showed a TGI in assay [6] of over 100 µM.

As to `COc1ccc2c(c1OC)C(C(Cl)(Cl)Cl)N1CCc3cc4c(cc3C1=C2)OCO4` (configuration not stated), the TGI in assay [1] was 39.4 µM; in [9], over 100 µM; in [7], 27.9 µM; in assay [10], over 100 µM.

For the compound `COC1=C(Cl)C(=O)c2c(O)ccc(O)c2C1=O`, the TGI in [1] came to 3.25 µM; in assay [9], 9.17 µM; in assay [7], 1.34 µM; in assay [10], 3.29 µM.

Turning to `COC1=CC(c2ccc[nH]2)=N/C1=C\c1[nH]c(C)c(CC(=O)OCc2ccccc2)c1C`, the GI50 in [1] was 0.198 µM; in assay [9], 0.299 µM; in [7], 0.219 µM; in [10], 0.397 µM. For the same compound, the TGI in assay [1] turned out to be 0.51 µM; in assay [9], 10.3 µM; in assay [7], 1.05 µM; in [10] it was 2.85 µM.

For the compound `NC(=O)c1cccc(OCC(O)CO)c1` (configuration not stated), the TGI in assay [1], in assay [9], in assay [7] and in [10] was over 100 µM throughout.

Turning to `O=C1C=Cc2c1ccc1ccccc21`, the GI50 in [1] was 72.9 µM; in [9], 13 µM; in assay [7], 27 µM; in assay [10], 18.6 µM. Further, the TGI is over 100 µM in assay [1], 85.2 µM in assay [9], over 100 µM in assay [7] and over 100 µM in assay [10].

`Cn1c(-c2ccccc2)c(/C=C/C2=[N+](C)c3ccccc3C2(C)C)c2ccccc21`: the GI50 in assay [1] is 1.13 µM; in [9], 0.575 µM; in [7], 0.593 µM; in assay [10], 0.817 µM. Also, the TGI in assay [1] worked out at 4.19 µM; in assay [9], 9.16 µM; in assay [7], 7.11 µM; in [10], 10.8 µM.
